From ChEMBL document CHEMBL5335811, “2-Phenylcyclopropylmethylamine (PCPMA) as a privileged scaffold for central nervous system drug design” (Bioorg Med Chem Lett, 2024)
Each block holds one compound with its values, some of them ahead of it.

Columns and labels:
[1] = target: T1, 5-hydroxytryptamine receptor 2A (Homo sapiens, UniProt P28223); assay: Agonist activity at human 5HT2A receptor; assay type: functional
[2] = target: Sigma intracellular receptor 2 (Homo sapiens, UniProt Q5BJF2); assay: Binding affinity to sigma 2 receptor (unknown origin) assessed as inhibition constant
[3] = species on record: Homo sapiens; assay: Selectivity ratio of Ki for sigma 2 receptor (unknown origin) to Ki for sigma 1 receptor assessed as inhibition of constant
[4] = target: Sigma non-opioid intracellular receptor 1 (Homo sapiens, UniProt Q99720); assay: Binding affinity to sigma1 receptor (unknown origin) assessed as inhibition constant
[5] = target: T2, 5-hydroxytryptamine receptor 2C (Homo sapiens, UniProt P28335); assay: Agonist activity at 5HT2C receptor (unknown origin); assay type: functional
T2 sequence (P28335 whole entry): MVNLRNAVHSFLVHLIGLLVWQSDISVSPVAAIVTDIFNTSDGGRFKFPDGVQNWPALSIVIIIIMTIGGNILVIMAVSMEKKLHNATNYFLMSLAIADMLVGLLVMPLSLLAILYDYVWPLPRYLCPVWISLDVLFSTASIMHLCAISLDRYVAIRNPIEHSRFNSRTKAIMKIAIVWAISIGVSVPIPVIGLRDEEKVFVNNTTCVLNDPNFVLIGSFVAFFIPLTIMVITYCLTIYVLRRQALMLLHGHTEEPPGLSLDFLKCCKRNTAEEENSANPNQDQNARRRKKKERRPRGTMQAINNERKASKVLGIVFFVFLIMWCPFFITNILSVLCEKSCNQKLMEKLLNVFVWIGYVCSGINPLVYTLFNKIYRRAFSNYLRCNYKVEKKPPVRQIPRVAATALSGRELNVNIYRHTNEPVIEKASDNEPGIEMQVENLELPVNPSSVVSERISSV

[6] = target: T1, 5-hydroxytryptamine receptor 2A; assay: Agonist activity at 5HT2A receptor (unknown origin) at 10 uM relative to control; assay type: functional
[7] = target: T1, 5-hydroxytryptamine receptor 2A; assay: Agonist activity at N-terminal HA-tagged human 5HT2A receptor; assay type: functional
[8] = target: T3, 5-hydroxytryptamine receptor 2C (Homo sapiens) (UniProt P28335); assay: Agonist activity at 5HT2C receptor (unknown origin) at 10 uM relative to control; assay type: functional; conditions: filed as agonist
T3 sequence (whole entry): T2 sequence (P28335 whole entry)

[9] = target: T3, 5-hydroxytryptamine receptor 2C (Homo sapiens); assay: Agonist activity at 5HT2C receptor (unknown origin) at 1 uM relative to control; assay type: functional; conditions: filed as agonist
[10] = target: T1, 5-hydroxytryptamine receptor 2A; assay: Agonist activity at N-terminal HA-tagged human 5HT2A receptor at 1 uM relative to control; assay type: functional
[11] = target: T4, 5-hydroxytryptamine receptor 2B (Homo sapiens, UniProt P41595); assay: Agonist activity at 5HT2B (unknown origin); assay type: functional
[12] = target: T4, 5-hydroxytryptamine receptor 2B; assay: Agonist activity at 5HT2B (unknown origin) at 1 uM relative to control; assay type: functional
[13] = Binding affinity to MT1 receptor (unknown origin) assessed as inhibition constant; design: species or system Homo sapiens
[14] = target: T5, Melatonin receptor type 1B (Homo sapiens, UniProt P49286); assay: Binding affinity to MT2 receptor (unknown origin) assessed as inhibition constant
T5 sequence (P49286 whole entry): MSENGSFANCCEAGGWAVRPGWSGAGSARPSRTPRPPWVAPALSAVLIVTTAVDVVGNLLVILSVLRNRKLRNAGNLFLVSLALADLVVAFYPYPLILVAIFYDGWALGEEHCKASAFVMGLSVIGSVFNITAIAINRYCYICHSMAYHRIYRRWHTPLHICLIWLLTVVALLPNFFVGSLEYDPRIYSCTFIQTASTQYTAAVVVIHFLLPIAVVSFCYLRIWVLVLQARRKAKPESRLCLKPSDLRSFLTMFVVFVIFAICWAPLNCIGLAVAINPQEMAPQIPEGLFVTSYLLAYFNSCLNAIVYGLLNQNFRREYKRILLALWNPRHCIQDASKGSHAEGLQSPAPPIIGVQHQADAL

[15] = Effect on emotional-affective response in USV-induced Sprague-Dawley rat assessed as reduction in ultrasonic vocalization; assay type: functional; conditions: read-out: MED
[16] = species on record: Mus musculus; assay: Antidepressant activity in Swiss albino mouse assessed as minimum effective dose by tail suspension test; assay type: functional; conditions: read-out: MED
[17] = Terminal elimination half life in Sprague-Dawley rat at 12 mg/kg, po; assay type: ADME, organism-based; conditions: in vivo, read-out: beta t1/2 (converted)
[18] = species on record: Mus musculus; assay: Antidepressant activity in USV-induced Swiss albino mouse model of depression assessed as minimum effective dose; assay type: functional; conditions: read-out: MED

T1 sequence (P28223 whole entry): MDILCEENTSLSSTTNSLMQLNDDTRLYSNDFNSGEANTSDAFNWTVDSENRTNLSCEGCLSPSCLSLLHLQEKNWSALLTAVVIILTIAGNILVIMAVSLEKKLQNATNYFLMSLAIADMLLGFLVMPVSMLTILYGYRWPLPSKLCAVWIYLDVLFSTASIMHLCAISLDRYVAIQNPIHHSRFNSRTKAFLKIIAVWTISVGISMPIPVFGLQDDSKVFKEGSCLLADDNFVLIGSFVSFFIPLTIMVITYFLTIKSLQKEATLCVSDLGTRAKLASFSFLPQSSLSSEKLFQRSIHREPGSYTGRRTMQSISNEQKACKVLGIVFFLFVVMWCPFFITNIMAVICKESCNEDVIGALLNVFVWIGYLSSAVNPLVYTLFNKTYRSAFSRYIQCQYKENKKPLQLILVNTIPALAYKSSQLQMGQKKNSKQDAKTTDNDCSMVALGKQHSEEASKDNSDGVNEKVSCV
T4 sequence (P41595 whole entry): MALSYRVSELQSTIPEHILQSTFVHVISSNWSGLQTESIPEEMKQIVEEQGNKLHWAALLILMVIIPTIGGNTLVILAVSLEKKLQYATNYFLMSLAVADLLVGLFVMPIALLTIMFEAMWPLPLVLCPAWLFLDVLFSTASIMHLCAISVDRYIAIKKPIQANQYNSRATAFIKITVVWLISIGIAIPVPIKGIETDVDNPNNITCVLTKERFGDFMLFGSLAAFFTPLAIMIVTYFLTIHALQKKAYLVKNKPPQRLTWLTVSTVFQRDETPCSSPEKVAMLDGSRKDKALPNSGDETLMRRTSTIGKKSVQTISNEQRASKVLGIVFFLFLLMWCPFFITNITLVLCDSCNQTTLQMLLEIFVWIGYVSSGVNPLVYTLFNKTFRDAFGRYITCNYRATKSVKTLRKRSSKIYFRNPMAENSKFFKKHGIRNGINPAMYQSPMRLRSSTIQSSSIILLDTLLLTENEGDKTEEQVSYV
Chain of Sigma intracellular receptor 2 (Q5BJF2 whole entry): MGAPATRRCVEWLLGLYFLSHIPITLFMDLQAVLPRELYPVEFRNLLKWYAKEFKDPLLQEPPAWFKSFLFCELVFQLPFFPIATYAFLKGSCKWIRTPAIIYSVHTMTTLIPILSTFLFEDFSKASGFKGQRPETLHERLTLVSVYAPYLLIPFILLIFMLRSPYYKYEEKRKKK
Chain of Sigma non-opioid intracellular receptor 1 (Q99720 whole entry): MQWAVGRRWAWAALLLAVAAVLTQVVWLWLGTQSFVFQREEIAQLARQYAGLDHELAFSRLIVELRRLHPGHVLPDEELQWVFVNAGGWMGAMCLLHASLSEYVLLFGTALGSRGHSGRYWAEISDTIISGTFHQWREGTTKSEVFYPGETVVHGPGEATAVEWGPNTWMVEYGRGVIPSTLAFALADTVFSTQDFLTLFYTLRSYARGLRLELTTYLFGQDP

EC50 [1]: 600 nM
Structure (SMILES): CC1(C)Cc2cc(Cl)cc([C@H]3C[C@H]3CN)c2O1

Structure (SMILES): COC(=O)[C@]1(c2ccccc2)C[C@@H]1CN1CCC(O)(c2ccc(Cl)cc2)CC1
Ki [2]: 21.9 nM
Selectivity ratio [3]: 5.5
Ki [4]: 1.51 nM

Structure (SMILES): NC[C@@H]1C[C@@H]1c1cc(O)ccc1OCC1CC1
EC50 [5]: 9.3 nM
Emax [6]: 18%
EC50 [7]: 372 nM
Emax [8]: 70%

Structure (SMILES): NC[C@@H]1C[C@@H]1c1cc(F)ccc1OCC1CC1
EC50 [5]: 21 nM
Emax [9]: 71%
Emax [10]: 29%
EC50 [11]: 289 nM
EC50 [7]: 894 nM
Emax [12]: 21%

Ki [13]: 0.3 nM
Ki [14]: 0.07 nM
Structure (SMILES): CCC(=O)NC[C@@H]1C[C@H]1c1cccc2c1CCO2 [TASIMELTEON]

Structure (SMILES): CCN(CC)C(=O)[C@@]1(c2ccccc2)C[C@H]1CN [LEVOMILNACIPRAN]
minimal effective dose [15]: 5 mg/kg
minimal effective dose [16]: 2.5 mg/kg
half-life [17]: 12 h
minimal effective dose [18]: 20 mg/kg
